Results from patent US20050026979A1, “Methods for treating inflammation and inflammation-associated diseases with a statin and ether” (priority 2003, published 2005).

System: monosodium iodoacetate ("MIA")-induced knee joint arthritis
Test: Monosodium iodoacetate (MIA)-induced osteoarthritis joint pain model, acute dosing paradigm (hind paw weight distribution, incapacitance tester)
Assay type: in vivo, rat (male Wistar)
Conditions: for Change in Hind Paw Weight Distribution: Day 7 post-MIA, mean, n=6
Method: Monosodium Iodoacetate (“MIA”)-Induced Osteoarthritis:
Male Wistar rats (175-200 g) were housed in solid bottom isolator cages, […], with corncob bedding on a 12 hour:12 hour light:dark cycle. Animals were fed standard rat chow with water available ad libitum.
The rats were anesthetized with 5% volume/volume (“v/v”) isoflurane gas and maintained with 2% v/v isoflurane gas. The anesthetized rats were given a single intra-articular injection of 1 mg of MIA through the infrapatellar ligament of the right knee. MIA was dissolved in physiologic saline and administered in a volume of 50 μL. The contralateral control knee was injected with 50 μL of physiologic saline. Administration of isoflurane gas was discontinued, and the rats became fully conscious about 5 minutes later.
Shifts in hind paw weight distribution from the right to the left hind paws supporting the right (arthritic) and the left (contralateral control) hind leg knee joints were utilized as an index of joint pain and as a measure of compound efficacy. An incapacitance tester (Model 2KG, Linton Instrumentation, UK) was employed for determination of hind paw weight distribution. Each data point is the mean of three readings of 5 seconds duration.
The acute dosing paradigm used herein relates to osteoarthritis signs such as mobility and joint function and osteoarthritis symptoms such as joint pain. In this dosing paradigm, changes in hind paw weight distribution were determined early on Day 7 post-MIA injection, as described previously, to establish a baseline pain reading. […] Changes in hind paw weight distribution were determined 2, 4 and 6 hours post-compound administration.
MIA was injected into the right knee and saline into the left knee of all rats on Day 0. […] Two, four, and six hours later, the rats were re-assessed.
Statistically significant differences were determined by one-way ANOVA followed by Dunnett's multiple comparisons procedure. Data are expressed as mean±SEM. N=6 rats per group.

## CC(C)(CCCCOCCCCC(C)(C)C(=O)[O-])C(=O)[O-].[Ca+2] [Compound A, 6-(5-carboxy-5-methyl-hexyloxy)-2,2-dimethyl-hexanoic acid calcium salt]
2 hr post-dose, Compound A 10 mg/kg PO
  Change in Hind Paw Weight Distribution: 21 g
4 hr post-dose, Compound A 10 mg/kg PO
  Change in Hind Paw Weight Distribution: 15 g
6 hr post-dose, Compound A 10 mg/kg PO
  Change in Hind Paw Weight Distribution: 21 g
Compound A 10 mg/kg PO, 2, 4 and 6 hour post-dose time points
  Effect on shift in weight bearing potential (joint pain) versus vehicle, in words: altered the shift in weight bearing potential (joint pain) in arthritic rats at the 2, 4 and 6 hour post-dose time points in a statistically significant manner
Pre-Dose (Baseline), group later given Compound A 10 mg/kg PO
  Change in Hind Paw Weight Distribution: 32 g
